Values quoted from earlier work in paper PMC6595297 (British Journal of Clinical Pharmacology, 2019).

Test system: human P‐gp transport function
Conditions: cited from earlier work

Row | Compound | Inhibition of P‐gp (classification)
1 | OC(Cn1cncn1)(Cn1cncn1)c1ccc(F)cc1F [fluconazole] | devoid of P‐gp inhibitory effect
2 | CCC(C)n1ncn(-c2ccc(N3CCN(c4ccc(OCC5COC(Cn6cncn6)(c6ccc(Cl)cc6Cl)O5)cc4)CC3)cc2)c1=O (centres unmarked) [itraconazole] | strong dual inhibitor of CYP3A and P‐gp
